Reference: PMC11345829, “Discovery of Potent Isoquinolinequinone N-Oxides to Overcome Cancer Multidrug Resistance” (Journal of Medicinal Chemistry, 2024)

Experiments:
[1] = tested on: NCI-ADR/RES; set-up: method as in PMID 31894828; details: MDR cell line, high P-gp; read-out: growth inhibition (GI50) NCI/ADR-RES; cited from earlier work
[2] = tested on: MRC-5; assay: SRB cytotoxicity assay, nontumorigenic lung fibroblasts; format: cell-based, human; details: 48 h
Experimental: Selectivity over nontumorigenic cells is a key requirement in cancer therapy so the cytotoxicity of 25 against nontumorigenic lung fibroblast (MRC-5) and breast cell lines (MCF12A) was evaluated with the SRB assay.
Figure 5 Cytotoxic effect of compound 25 on the nontumorigenic MRC-5 cell line (fibroblasts isolated from the lung tissue), analyzed by the SRB assay. Concentration−response curves of MRC-5 cells exposed to compound 25 for 48 h. Results are presented as percentage (%) of cell growth compared to control cells (vehicle, DMSO). For comparison purposes, the GI50 concentration of compound 25 in the NCI-H460 cell line is represented by the vertical dotted line. Results are the mean ± SEM from at least three independent experiments.
Cells were seeded at a previously determined optimal cell concentration (5.0 × 10^4 cells/mL for NSCLC cells and the nontumorigenic MRC-5 cell line and 1.0 × 10^5 cells/mL for colorectal cancer cells) and incubated at 37 °C for 24 h. […] The SRB assay was performed as previously described.[78],[79] […] Absorbance was measured at 510 nm in a multiplate reader (Synergy Mx, Biotek Instruments Inc., Winooski, Vermont, USA) using the Gen5 software (Biotek Instruments Inc.).

[3] = tested on: NCI-H460 cells; assay: Alkaline Comet assay (DNA damage); format: cell-based, human; details: 48 h; 2 × GI50; preliminary, data not shown
Experimental: Hydrogen peroxide (Sigma-Aldrich) was used as a positive control (50 μM). Harvested cells were resuspended in 0.5% low melting point agarose (Thermo Fisher Scientific) and poured onto slides precoated with 1% normal melting point agarose (Sigma-Aldrich). Cells were then lysed with ice-cold lysis buffer [100 mM Na2EDTA (Sigma-Aldrich), […] (Sigma-Aldrich), 10 mM Tris-Base (Sigma-Aldrich), pH 10.0, 1% and Triton X-100 (Sigma-Aldrich)) for 2 h in the dark at 4 °C. Then, after two washes with distilled water, slides were placed on an electrophoresis tank filled with electrophoresis buffer [300 mM NaOH (Sigma-Aldrich), 1 mM Na2EDTA; pH 13.0] and incubated for 40 min to allow DNA to unwind. Electrophoresis was carried out for 20 min at 32 V. Then slides were immersed twice in pure ethanol and allowed to dry at RT. Slides were stained with SyberGold staining solution (Invitrogen) in Tris-EDTA buffer [10 mM Tris-HCl (Sigma-Aldrich) and 1 mM EDTA (Sigma-Aldrich); pH 7.5] for 30 min with agitation and protected from light. In the end, slides washed and dried were visualized on a Zeiss Axio Imager Z1 microscope, equipped with the Axiovision 4.9 software.

[4] = tested on: DLD1 spheroids; assay: Cell Titer-Glo 3D spheroid viability assay; format: cell-based, human; details: 48 h; 25 at 0.61 and 1.22 μM
Text: (§1) Figure 12 Effect of compound 25 on the viability of spheroids established from two counterpart pairs of sensitive and MDR cell lines, from NSCLC (NCI-H460 and NCI-H460/R) and colorectal cancer (DLD1 and DLD1-TxR), using MicroTissue 3D Petri dishes. […] (B) Effect of compound 25 on the viability of NCI-H460 spheroids analyzed by Cell Titer-Glo 3D viability assay. (C) Effect of compound 25 on the viability of NCI-H460/R spheroids analyzed with the Cell Titer-Glo 3D viability assay. Results are presented as the % of luciferase luminescence relative to the “blank” cells (medium). […] (E) Effect of compound 25 on the viability of DLD1 spheroids analyzed by Cell Titer-Glo 3D viability assay. (F) Effect of compound 25 on the viability of DLD1-TxR spheroids analyzed with the Cell Titer-Glo 3D viability assay. Data are expressed as mean ± SEM from 3 independent experiments. * p ≤ 0.05 and ** p ≤ 0.01, when comparing DMSO vs compound treatment.
(§2) Spheroid formation was conducted in 12-series agarose 3D Petri Dish micromolds (MicroTissues Technology, MicroTissues Inc., Sigma-Aldrich). The agarose micromolds were prepared using 1% agarose in a 0.9% NaCl solution and then placed in 12-well plates and equilibrated with RPMI supplemented with 10% FBS for at least 2 h before cell seeding. Cell suspensions corresponding to 500 cells per spheroid of the NSCLC cell lines (NCI-H460 and NCI-H460/R), and 1000 cells per spheroid of the colorectal cancer cell lines (DLD1 and DLD1-TxR) were seeded in the corresponding micromolds. The choice of cell seeding concentration was based on a previous optimization assay (data not shown), ensuring that at the end of the assay the spheroids would have a size of around 400 μm. A 20 min incubation period was used for cells to settle into the micromolds and additional medium was finally added to the wells. Spheroid formation was monitored with the Leica DMi1 microscope. […] At the end of the treatment, images from at least 8 different spheroids per condition were captured on the Leica Dmi1 microscope, and posteriorly analyzed with the automated open-source software AnaSP.[82] Spheroid parameters, such as equivalent diameter, circularity, and compactness, were calculated.
(§3) Spheroid viability was determined through the luminescence-based Cell Titer-Glo 3D cell viability assay (Promega). Spheroids grown on MicroTissues 3D Petri Dish micromolds were exposed to the treatments, as described in the previous section. Then, the spheroids were transferred into 96-well plates in 50 μL of RPMI medium. […] The plate was then incubated in the dark for 5 min with agitation and allowed to rest for 25 min before luminescence measurement. Luminescence was quantified using the microplate reader Synergy MX coupled with the GEN5 software. […]

[5] = tested on: DLD1-TxR spheroids; assay: Cell Titer-Glo 3D spheroid viability assay; format: cell-based, human; details: 48 h; 25 at 0.61 and 1.22 μM
Text: as §1, §2, §3

| Compound | GI50 [1] [nM] | GI50 ([2]; Homo sapiens, MRC5, SRB, nontumorigenic lung fibroblasts, ±0.075 SEM) [nM] | effect on MRC-5 growth at low concentrations ([2]; below 0.5 μM) | DNA damage [3] | viability of DLD1 spheroids [4] | viability of DLD1-TxR spheroids [5] |
| --- | --- | --- | --- | --- | --- | --- |
| COC(=O)c1c2c(c(C)[n+]([O-])c1C)C(=O)C=C(NCc1ccccc1)C2=O [Compound 2] | 535 |  |  |  |  |  |
| COC(=O)c1c2c(c[n+]([O-])c1C)C(=O)C=C(NCc1ccccc1)C2=O [Compound 25] |  | 1530 | does not reduce the growth of this cell line | did not increase DNA damage | significant decrease in the viability of the spheroids | significant decrease in the viability of the spheroids |
